Test results reported in ChEMBL document CHEMBL1201862, “PubChem BioAssay data set” (2004).
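A five-concentration, 48-hour dose response in 96-well plates underlies each endpoint, interpolated linearly between surrounding concentrations. The concentration for 50% growth inhibition is given as GI50.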 Calls of active or inactive are those of the source. Rule as the data show it: active = GI50 up to about 1.1 µM and inactive = higher.

Columns and labels:
Assay in all cases: inhibition of tumour cell growth, NCI panel, 48 h
[1] = test system: SF-268
[2] = test system: HL-60
[3] = test system: MOLT-4
[4] = test system: OVCAR-3
[5] = test system: NCI-H460
[6] = test system: SR
[7] = test system: IGROV-1
[8] = test system: HCT-15
[9] = test system: BT-549
[10] = test system: NCI/ADR-RES
[11] = test system: Hs-578T
[12] = test system: 786-0
[13] = test system: TK-10
[14] = test system: A549
[15] = test system: SF-539
[16] = test system: HCC 2998
[17] = test system: PC-3
[18] = test system: SK-MEL-2
[19] = test system: SNB-75
[20] = test system: UACC-62

Row | SMILES | GI50 [1] | GI50 [2] | GI50 [3] | GI50 [4] | GI50 [5] | GI50 [6] | GI50 [7] | GI50 [8] | GI50 [9] | GI50 [10] | GI50 [11] | GI50 [12] | GI50 [13] | GI50 [14] | GI50 [15] | GI50 [16] | GI50 [17] | GI50 [18] | GI50 [19] | GI50 [20]
1 | COC(=O)c1c(O)ccc2c1C1(Cc3ccccc3C1=O)C(O)O2 (stereo not given) | 15.6 µM (inactive) | 4.02 µM (inactive) | 5.04 µM (inactive) | 18.6 µM (inactive) | 8.85 µM (inactive) | 4.49 µM (inactive) | 1.94 µM (inactive) | 13.3 µM | 5.09 µM (inactive) | 27.8 µM (inactive) | 23.3 µM (inactive) | 14.1 µM (inactive) | 24.3 µM (inactive) | 20.6 µM (inactive) | 20.1 µM (inactive) | 31.2 µM (inactive) | 17.2 µM (inactive) | 28.3 µM (inactive) |  | 
2 | Nc1n[nH]c2c(C(=O)Nc3ccc(Cl)cc3)c(N)n(N)c(=O)c12 | > 100 µM (inactive) | > 100 µM (inactive) | > 100 µM (inactive) | > 100 µM (inactive) | > 100 µM (inactive) | > 100 µM (inactive) | > 100 µM (inactive) | > 100 µM | > 100 µM (inactive) | > 100 µM (inactive) | > 100 µM (inactive) | > 100 µM (inactive) | > 100 µM (inactive) | > 100 µM (inactive) | > 100 µM (inactive) | > 100 µM (inactive) | > 100 µM (inactive) | > 100 µM (inactive) | > 100 µM (inactive) | > 100 µM (inactive)
3 | CCOc1cc(NC(C)=O)ccc1C(=O)NN1C(=O)C(Cl)C1c1ccc(O)c(OC)c1 (stereo not given) | 14.7 µM (inactive) | 15.7 µM (inactive) | 5.3 µM (inactive) | 20.2 µM (inactive) | 16.4 µM (inactive) | 4.52 µM (inactive) | 12.8 µM (inactive) | 14.2 µM | 8.83 µM (inactive) | 20.4 µM (inactive) | 16.7 µM (inactive) | 13.1 µM (inactive) | 3.08 µM (inactive) | 16.7 µM (inactive) | 11.4 µM (inactive) | 17.2 µM (inactive) | 14.1 µM (inactive) | 14.8 µM (inactive) | 11.8 µM (inactive) | 12.3 µM (inactive)
4 | O=C1NC(N2CCCC(CO)C2)=N/C1=C\c1ccc(O)cc1 (stereo not given) | > 100 µM (inactive) | > 100 µM (inactive) | > 100 µM (inactive) | > 100 µM (inactive) |  | > 100 µM (inactive) | > 100 µM (inactive) | > 100 µM | > 100 µM (inactive) | > 100 µM (inactive) | > 100 µM (inactive) | > 100 µM (inactive) | > 100 µM (inactive) | > 100 µM (inactive) | > 100 µM (inactive) | > 100 µM (inactive) | > 100 µM (inactive) | > 100 µM (inactive) | > 100 µM (inactive) | > 100 µM (inactive)
5 | CCC1CCC2c3c([nH]c4ccccc34)C3C(=O)N(c4ccc(OC)cc4)C(=O)C3C2C1 (stereo not given) | 52.5 µM (inactive) | 28.2 µM (inactive) | 16.7 µM (inactive) | 22.3 µM (inactive) | 30.4 µM (inactive) | 16.1 µM (inactive) | 64.1 µM (inactive) | 35.1 µM | > 100 µM (inactive) | 39.6 µM (inactive) | 22.2 µM (inactive) | > 100 µM (inactive) | 28.2 µM (inactive) | 22.2 µM (inactive) | 34 µM (inactive) | 91.2 µM (inactive) | > 100 µM (inactive) |  | 19.5 µM (inactive) | 61.8 µM (inactive)
6 | COc1ccc(OC)c(NS(=O)(=O)c2ccc3nc(C)n(NS(=O)(=O)c4cc(OC)ccc4OC)c(=O)c3c2)c1 | > 100 µM (inactive) | 26.2 µM (inactive) | 15.2 µM (inactive) | > 100 µM (inactive) | 82.4 µM (inactive) | 14.8 µM (inactive) | > 100 µM (inactive) | > 100 µM | 70.1 µM (inactive) | > 100 µM (inactive) | > 100 µM (inactive) | > 100 µM (inactive) | > 100 µM (inactive) |  | > 100 µM (inactive) | 38.6 µM (inactive) | 78.9 µM (inactive) | > 100 µM (inactive) | > 100 µM (inactive) | > 100 µM (inactive)
7 | Cc1n[nH]c(=O)n1/N=C\CC/C=N\n1c(C)n[nH]c1=O | > 100 µM (inactive) | > 100 µM (inactive) | > 100 µM (inactive) | > 100 µM (inactive) |  | > 100 µM (inactive) | > 100 µM (inactive) | > 100 µM | > 100 µM (inactive) | > 100 µM (inactive) | > 100 µM (inactive) | > 100 µM (inactive) | > 100 µM (inactive) | > 100 µM (inactive) | > 100 µM (inactive) | > 100 µM (inactive) | > 100 µM (inactive) | > 100 µM (inactive) | > 100 µM (inactive) | > 100 µM (inactive)
8 | N#Cc1c(-c2ccccc2)c2c([nH]c1=O)-c1cc([N+](=O)[O-])ccc1CCC2 | 26.6 µM (inactive) | 35.2 µM (inactive) | 25 µM (inactive) | 21.2 µM (inactive) | 30.4 µM (inactive) | 28.8 µM (inactive) | 29.9 µM (inactive) | 20.9 µM | 17.4 µM (inactive) | 22 µM (inactive) | 68.2 µM (inactive) | 43.2 µM (inactive) | 44.4 µM (inactive) | 30.3 µM (inactive) | 27.7 µM (inactive) | 20.7 µM (inactive) | 39.7 µM (inactive) | 25.2 µM (inactive) | < 0.01 µM (active) | 17.5 µM (inactive)
9 | COc1ccc(CCN2C(=O)C(=O)C(C(=O)c3ccccc3)C2c2ccccc2)cc1OC (stereo not given) | > 100 µM (inactive) | > 100 µM (inactive) | > 100 µM (inactive) | > 100 µM (inactive) | > 100 µM (inactive) | > 100 µM (inactive) | > 100 µM (inactive) | 60.5 µM | 51.6 µM (inactive) | 58.6 µM (inactive) | 41.6 µM (inactive) | > 100 µM (inactive) | > 100 µM (inactive) | > 100 µM (inactive) | > 100 µM (inactive) | > 100 µM (inactive) | > 100 µM (inactive) | > 100 µM (inactive) |  | > 100 µM (inactive)
10 | C[C@]1(CO)[C@H]2CC[C@@]34C=C[C@@](CO)(CC[C@H]3[C@]2(C)CC[C@H]1O)C4 | 47.3 µM (inactive) | 37.4 µM (inactive) | 8.93 µM (inactive) | > 100 µM (inactive) |  | 24.3 µM (inactive) | 25.4 µM (inactive) | 36.5 µM | 56.2 µM (inactive) | 27.3 µM (inactive) | 55.7 µM (inactive) | 43.9 µM (inactive) | > 100 µM (inactive) | > 100 µM (inactive) | 96.2 µM (inactive) | 38.3 µM (inactive) | 44.3 µM (inactive) | > 100 µM (inactive) | 17.9 µM (inactive) | 94.6 µM (inactive)
11 | COc1ccc2c(c1)N=C(N)n1c(nc3ccccc31)S2 | 19.5 µM (inactive) | 3.79 µM (inactive) | 5.28 µM (inactive) | 22.2 µM (inactive) | 8.18 µM (inactive) | 5.52 µM (inactive) | 16.1 µM (inactive) | 25.1 µM | 27.1 µM (inactive) | 19.2 µM (inactive) | 58.1 µM (inactive) | 1.95 µM (inactive) | > 100 µM (inactive) | 30 µM (inactive) | 34.6 µM (inactive) | 48.9 µM (inactive) | 7.24 µM (inactive) | 7.98 µM (inactive) | 31.7 µM (inactive) | 16.3 µM (inactive)
12 | C=CCOn1c(C=C)nc2ccc(C)cc21 | 24 µM (inactive) | 5.01 µM (inactive) | 8.18 µM (inactive) | 16 µM (inactive) | 13.7 µM (inactive) | 7.59 µM (inactive) | 26.2 µM (inactive) | 17 µM | 19.7 µM (inactive) | 25.9 µM (inactive) | 27.2 µM (inactive) | 14 µM (inactive) | 13.6 µM (inactive) | 22.7 µM (inactive) |  | 18.5 µM (inactive) | 12.9 µM (inactive) | 15.5 µM (inactive) | 16 µM (inactive) | 13.6 µM (inactive)
13 | BC(=O)NC(CC(C)C)C(=O)NC1c2ccsc2C(=O)C1O.CN(C)C (stereo not given) | > 100 µM (inactive) | > 100 µM (inactive) | > 100 µM (inactive) |  | > 100 µM (inactive) | > 100 µM (inactive) | > 100 µM (inactive) | > 100 µM | > 100 µM (inactive) | > 100 µM (inactive) | > 100 µM (inactive) | > 100 µM (inactive) | > 100 µM (inactive) | > 100 µM (inactive) | > 100 µM (inactive) | > 100 µM (inactive) | > 100 µM (inactive) | > 100 µM (inactive) | > 100 µM (inactive) | > 100 µM (inactive)
14 | COc1cc(OC)c(-c2cc(=O)c3c(OC)c(OC)c(OC)c(OC)c3o2)cc1OC | > 100 µM (inactive) | 13.6 µM (inactive) | 22.2 µM (inactive) | 30.2 µM (inactive) | > 100 µM (inactive) | > 28.3 µM (inactive) | > 100 µM (inactive) | > 100 µM | > 100 µM (inactive) | 21.9 µM (inactive) | 32 µM (inactive) | > 69.3 µM (inactive) | 97.5 µM (inactive) | > 100 µM (inactive) | > 100 µM (inactive) | > 100 µM (inactive) | 88.1 µM (inactive) | > 100 µM (inactive) | 14.9 µM (inactive) | 29.6 µM (inactive)
